The source of these data is ChEMBL document CHEMBL1201862, “PubChem BioAssay data set” (2004).

Common to all, as to experiment: DTP human tumour cell line panel, 48 h
The subject of assay [1] is CAKI-1.
In assay [2] the test system is COLO 205.
The test system of assay [3] is EKVX.
Assay [4] relates to HCT-116.
The subject of assay [5] is HOP-62.
The test system of assay [6] is MCF7.
For assay [7], the system named is MDA-MB-231.
Assay [8] has as its system MDA-MB-435.
Assay [9] relates to NCI-H460.
For assay [10], the system named is OVCAR-4.
For assay [11], the system named is OVCAR-8.
Assay [12] relates to RXF 393.
For assay [13], the system named is SF-268.
Assay [14] has as its system SF-539.
Assay [15] concerns SK-MEL-28.
Assay [16] has as its system SN12C.
Assay [17] deals with SNB-19.
Assay [18] deals with SR.
Assay [19] relates to UO-31.
Assay [20] has as its system NCI-H522.

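How tested: cells in 96-well plates exposed to compound for 48 hours at five concentrations. GI50 is the concentration that inhibits growth by half.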 Active and inactive are the calls of the source. Cut-off read from the data, not from the text of the source: active = GI50 up to about 1.1 µM and inactive = higher.

Take `CC1CCCCN1CC(=O)c1ccc2c(c1)Sc1ccccc1O2` (centres undefined): the GI50 – broadly, the concentration giving 50% growth inhibition – in assay [1] was 17.9 µM (inactive); in [2] it was 24 µM (inactive); in assay [3], 13.3 µM (inactive); in assay [4], 14.2 µM (inactive); in assay [5], 15.5 µM (inactive); in assay [6], 16 µM (inactive). In addition, the GI50 in assay [7] was 24.7 µM (inactive); in assay [8] it was 13.8 µM (inactive); in assay [9], 14.2 µM (inactive); in assay [10] it was 13.2 µM (inactive); in assay [11], 15 µM (inactive); in assay [12], 13.8 µM (inactive). Moreover, the GI50 is 18.7 µM (inactive) in assay [13]; 16.9 µM (inactive) in assay [14]; 16.6 µM (inactive) in [15]; 18.7 µM (inactive) in [16]; 17.9 µM (inactive) in assay [17]; 15.3 µM (inactive) in [18]. Moreover, the GI50 in assay [19] was 12.3 µM (inactive).
Take `B.CC(=O)OC1CN2CCC1CC2` (centres undefined): the GI50 in assay [3], in assay [4], in assay [5], in assay [6], in assay [7] and in assay [8] was > 100 µM (inactive) throughout. The GI50 in assay [9], in [11], in assay [12], in [13], in assay [14] and in assay [15] was > 100 µM (inactive) in each case. Besides, the GI50 in assay [16] and in assay [18] was > 100 µM (inactive) each time.
On to `O=C(NC1=C(Cl)C(=O)c2ccccc2C1=O)c1ccc(F)cc1`, for which the GI50 in assay [2] was 2.44 µM (inactive); in assay [3] it was 11.8 µM (inactive); in [4] it was 0.455 µM (active); in assay [5], 13.9 µM (inactive); in assay [6], 3.62 µM (inactive); in [7] it was 4.4 µM (inactive). Also, the GI50 is 4.45 µM (inactive) in [8]; 2.87 µM (inactive) in assay [9]; 0.456 µM (active) in [20]; 6.67 µM (inactive) in assay [10]; 5.47 µM (inactive) in assay [11]; 1.25 µM (inactive) in assay [12]. In addition, the GI50 in assay [13] was 7.57 µM (inactive); in assay [14], 4.4 µM (inactive); in assay [15], 4.86 µM (inactive); in [16], 3.41 µM (inactive); in [17], 5.18 µM (inactive); in assay [18], 3.66 µM (inactive).
For `O=C(C/N=C(\CN(c1ccccc1)c1ccccc1)Oc1c([N+](=O)[O-])cc([N+](=O)[O-])cc1[N+](=O)[O-])N1CCNCC1`, the GI50 in assay [2], in assay [3], in [4], in assay [5], in assay [6] and in assay [7] was > 100 µM (inactive) in each case. For the same compound, the GI50 in assay [8] is > 100 µM (inactive); in assay [9] it was > 100 µM (inactive); in assay [20], > 100 µM (inactive); in assay [10] it was > 100 µM (inactive); in assay [11] it was 61.7 µM (inactive); in assay [12] it was 69.8 µM (inactive). The GI50 in assay [13], in assay [14], in assay [15], in assay [16], in assay [17] and in [18] was > 100 µM (inactive) in each case.
